Measured values taken from PubChem BioAssay AID1963449 (Molecular Pharmacology Branch, DTP, NCI, 2024).
One block for each molecule: values may come before it.

Tested on: 596521-263-R-J1-PDC complex spheroid growth
Assay: Anticancer human tumor 596521-263-R-J1-PDC patient-derived soft tissue sarcoma cell line growth inhibition [Asc]
Details: for IC50: curve of first compound; for viability, T/C: stronger effect = lower value
Experimental: Multicellular complex tumor spheroid response to apoptosis pathway targeting inhibitors Alrizomadlin, Pelcitoclax, and Dasminapant in combination with a variety of drugs and investigational agents in selected tumor cell lines
The MDM2 inhibitor alrizomadlin, the Bcl-2/Bcl-xL inhibitor pelcitoclax, and the IAPs inhibitor dasminapant were evaluated both individually and in combination with standard of care and investigational anticancer small molecules within a complex spheroid model of solid tumors. . Complex spheroids include a stromal component modeled by human endothelial cells (HUVEC) and fibroblasts modeled by human mesenchymal stem cells (MSCs). The concentration ranges selected for each drug and investigational agent were based upon clinically achievable concentrations if the clinical Cmax of the agent was known.
Compounds. The drugs and investigational agents: alrizomadlin (APG-115; NSC831270), pelcitoclax (APG-1252; NSC835773), dasminapant (APG-1387;NSC834197), TAK-243 (NSC785004), copanlisib (NSC809693), olaparib (NSC753686), talazoparib (NSC767125), cobimetinib (NSC 768068), eltanexor (KPT-8602, NSC 794443), abemaciclib (NSC 768073), sotorasib (NSC818433), adagrasib (NSC 831453), MRTX-1133 (NSC 836407), Iadademestat (ORY1001, NSC 806812), and RMC-4630 (NSC839698), were obtained from the NCI Developmental Therapeutics Program Chemical Repository. The FDA-approved anticancer drug set is available from the Developmental Therapeutics Program at https://dtp.cancer.gov/organization/dscb/obtaining/available plates.htm. […] The stock solutions were prepared in dimethyl sulfoxide (DMSO, Sigma-Aldrich, St. Louis, MO, cat. D2650) at 800-fold the tested concentration and stored at -70 degrees C prior to their use. All drugs and investigational agents were tested over a range starting from a high concentration at or near the clinical Cmax and decreasing in half-log increments. If the clinical Cmax for an agent had not been determined, the highest concentration tested was 10 microM.
The patient-derived cancer (PDC) cell lines include five colon adenocarcinomas: 186277-243-T-J2-PDC, 616215-338-R-J1-PDC, 439559-082-T-J2-PDC, 463943-066-T-J2-PDC, and 519858-162-T-J1-PDC; three pancreatic carcinomas: 323965-272-R-J2-PDC, 521955-158-R6-J3-PDC, and 521955-158-R2-J5-PDC; two uterine sarcomas: 327498-152-R-J2-PDC and 993429-296-R-J1-PDC; two rhabdomyosarcomas: 755483-174-R-J1-PDC and 772245-204-R-J1-PDC; two soft tissue sarcomas: 126254-015-R-J1-PDC and 494315-158-R-J1-PDC; two malignant fibrous histiocytomas: 317291-083-R-J1-PDC and 596521-263-R-J1-PDC; two breast carcinomas: 171881-019-R-J1-PDC and 885512-296-R-J2-PDC; and one ovarian carcinoma: 6556581-035-R-J-PDC were obtained from the NCI PDMR, (https://pdmr.cancer.gov). The established cell lines HSSY-2 synovial sarcoma (RRID:CVCL 8719), SYO-1 synovial sarcoma (RRID:CVCL_7146), MPNST malignant peripheral neural sheath tumor were obtained from the Sloan Kettering Institute. The following established cell lines were purchased from the American Type Culture Collection (ATCC, Manassas, VA), Sor the received from the NCI repository:, PANC-1 pancreatic carcinoma (CRL-1469, RRID:CVCL_0480), OVCAR-5 ovarian carcinoma (RRID:CVCL_1628), OVCAR-8 ovarian carcinoma (RRID:CVCL_1629), , MCF-7 breast carcinoma (CRL-12584, RRID:CVCL_0031), MDA-MB-231 breast carcinoma (CRL-12532, RRID:CVCL_0062), NCI-H1876 small cell lung carcinoma (CRL-5902, RRID:CVCL_1503), NCI-H510A small cell lung carcinoma (HTB-184, RRID:CVCL_1565), NCI-H1417 (CRL-5869, RRID:CVCL_1469), and NCI-H196 small cell lung carcinoma (CRL-5823, RRID:CVCL_1509). Dr. Peter Houghton (Greehey Children's Cancer Research Institute, University of Texas Health Science Center, San Antonio, TX) provided Rh-18 rhabdomyosarcoma (RRID:CVCL_1659). Pooled donor human umbilical vein endothelial cells (HUVEC, Lonza, cat. CC-2519) and human mesenchymal stem cells (hMSC, Lonza, cat. PT-2501) were purchased from Lonza (Walkersville, MD).
Cell Culture. […]

[1] = second compound 0.00949 µM, first compound 0.00316 µM
[2] = second compound 0.00949 µM, first compound 0.01 µM
[3] = second compound 0.00949 µM, first compound 0.0316 µM
[4] = second compound 0.00949 µM, first compound 0.1 µM
[5] = second compound 0.00949 µM, first compound 0.316 µM
[6] = second compound 0.00949 µM, first compound 1 µM
[7] = second compound 0.03 µM, first compound 0.00316 µM
[8] = second compound 0.03 µM, first compound 0.01 µM
[9] = second compound 0.03 µM, first compound 0.0316 µM
[10] = second compound 0.03 µM, first compound 0.1 µM
[11] = second compound 0.03 µM, first compound 0.316 µM
[12] = second compound 0.03 µM, first compound 1 µM
[13] = second compound 0.0949 µM, first compound 0.00316 µM
[14] = second compound 0.0949 µM, first compound 0.01 µM
[15] = second compound 0.0949 µM, first compound 0.0316 µM
[16] = second compound 0.0949 µM, first compound 0.1 µM
[17] = second compound 0.0949 µM, first compound 0.316 µM
[18] = second compound 0.0949 µM, first compound 1 µM
[19] = second compound 0.3 µM, first compound 0.00316 µM
[20] = second compound 0.3 µM, first compound 0.01 µM
[21] = second compound 0.3 µM, first compound 0.0316 µM
[22] = second compound 0.3 µM, first compound 0.1 µM
[23] = second compound 0.3 µM, first compound 0.316 µM
[24] = second compound 0.3 µM, first compound 1 µM
[25] = second compound 0.949 µM, first compound 0.00316 µM
[26] = second compound 0.949 µM, first compound 0.01 µM
[27] = second compound 0.949 µM, first compound 0.0316 µM
[28] = second compound 0.949 µM, first compound 0.1 µM
[29] = second compound 0.949 µM, first compound 0.316 µM
[30] = second compound 0.949 µM, first compound 1 µM
[31] = second compound 3 µM, first compound 0.00316 µM
[32] = second compound 3 µM, first compound 0.01 µM
[33] = second compound 3 µM, first compound 0.0316 µM
[34] = second compound 3 µM, first compound 0.1 µM
[35] = second compound 3 µM, first compound 0.316 µM
[36] = second compound 3 µM, first compound 1 µM
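Further: spheroids exposed to compounds for 7 days.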

IC50 (second compound 0.00949 µM): > 1000 nM
IC50 (second compound 0.03 µM): > 1000 nM
IC50 (second compound 0.0949 µM): > 1000 nM
IC50 (second compound 0.3 µM): > 1000 nM
IC50 (second compound 0.949 µM): > 1000 nM
IC50 (second compound 3 µM): > 1000 nM
Structure (SMILES): CCN1CCN(Cc2ccc(Nc3ncc(F)c(-c4cc(F)c5nc(C)n(C(C)C)c5c4)n3)nc2)CC1 + CCN1C(C(=O)NC23CCC(C(=O)O)(CC2)CC3)C(c2cccc(Cl)c2F)C2(C(=O)Nc3cc(Cl)ccc32)C12CCCCC2
viability, T/C [1]: 100%
viability, T/C [2]: 96.6%
viability, T/C [3]: 82.5%
viability, T/C [4]: 103%
viability, T/C [5]: 97.5%
viability, T/C [6]: 83.2%
viability, T/C [7]: 92.6%
viability, T/C [8]: 96.9%
viability, T/C [9]: 96.8%
viability, T/C [10]: 89.4%
viability, T/C [11]: 110%
viability, T/C [12]: 88%
viability, T/C [13]: 99.5%
viability, T/C [14]: 112%
viability, T/C [15]: 96.1%
viability, T/C [16]: 85.5%
viability, T/C [17]: 93.6%
viability, T/C [18]: 86.7%
viability, T/C [19]: 97.1%
viability, T/C [20]: 93.5%
viability, T/C [21]: 90%
viability, T/C [22]: 102%
viability, T/C [23]: 93.1%
viability, T/C [24]: 77.3%
viability, T/C [25]: 103%
viability, T/C [26]: 93.2%
viability, T/C [27]: 103%
viability, T/C [28]: 91.2%
viability, T/C [29]: 82.8%
viability, T/C [30]: 83.4%
viability, T/C [31]: 91.6%
viability, T/C [32]: 102%
viability, T/C [33]: 89.9%
viability, T/C [34]: 97.7%
viability, T/C [35]: 98.5%
viability, T/C [36]: 89.9%

IC50 (second compound 0.00949 µM): 493 nM
IC50 (second compound 0.03 µM): 466 nM
IC50 (second compound 0.0949 µM): 418 nM
IC50 (second compound 0.3 µM): 428 nM
IC50 (second compound 0.949 µM): 356 nM
IC50 (second compound 3 µM): 315 nM
Structure (SMILES): O=C(c1ccc(F)c(F)c1Nc1ccc(I)cc1F)N1CC(O)([C@@H]2CCCCN2)C1 + CCN1C(C(=O)NC23CCC(C(=O)O)(CC2)CC3)C(c2cccc(Cl)c2F)C2(C(=O)Nc3cc(Cl)ccc32)C12CCCCC2
viability, T/C [1]: 113%
viability, T/C [2]: 98.4%
viability, T/C [3]: 112%
viability, T/C [4]: 83.6%
viability, T/C [5]: 58.4%
viability, T/C [6]: 38.8%
viability, T/C [7]: 104%
viability, T/C [8]: 100%
viability, T/C [9]: 103%
viability, T/C [10]: 81.9%
viability, T/C [11]: 57.8%
viability, T/C [12]: 36.4%
viability, T/C [13]: 101%
viability, T/C [14]: 96.1%
viability, T/C [15]: 112%
viability, T/C [16]: 84.3%
viability, T/C [17]: 56.4%
viability, T/C [18]: 34.3%
viability, T/C [19]: 119%
viability, T/C [20]: 94.9%
viability, T/C [21]: 101%
viability, T/C [22]: 79.1%
viability, T/C [23]: 51.4%
viability, T/C [24]: 37%
viability, T/C [25]: 97.8%
viability, T/C [26]: 99.8%
viability, T/C [27]: 98.2%
viability, T/C [28]: 82.9%
viability, T/C [29]: 51.4%
viability, T/C [30]: 39.7%
viability, T/C [31]: 97.1%
viability, T/C [32]: 84.9%
viability, T/C [33]: 91.5%
viability, T/C [34]: 65.6%
viability, T/C [35]: 53.4%
viability, T/C [36]: 44.5%
